Experimental data from patent US8722901B2, “Carboxy oxazole or thiazole compounds as DGAT-1 inhibitors useful for the treatment of obesity” (Piramal Enterprises Limited, priority 2009, dated 2014).

How the values were obtained:
Swiss mice = test: Fat tolerance test (ftt) in mice; assay type: in vivo; settings: 3 mg/kg p.o., olive oil load 10 ml/kg p.o., reduction in AUC0-4h, vehicle group as 100%
Procedure: Study Protocol for Screening of Compounds for Fat Tolerance Test (ftt) in Mice
Swiss mice of age 4-5 weeks and body weight between 25-30 g were selected for study. After overnight fasting, animals were divided into three groups based on plasma triglyceride level with same mean and variation Animals were administered with either vehicle (1% Tween 80 in 0.5% carboxy methylcellulose) or with compounds of the present invention (3 mg/kg, p.o.). Compounds of the present invention were prepared as suspension in 0.5% carboxy methylcellulose (CMC) with 1% Tween 80. 30 minutes after the treatment, olive oil load (10 ml/kg, p.o.) was given. Blood samples were collected at 1, 2, 3 and 4 h after the fat (olive oil) load. Plasma was separated and triglyceride level was measured using commercially available kits (Diasys, Germany). Percentage reduction in area under curve (AUC0-4h) of the test compound was calculated by taking AUC0-4h of the vehicle group as 100%.

hDGAT-1 = target: T1, hDGAT-1 (Homo sapiens, UniProt O75907); test: In-vitro DGAT-1 assay (14C oleoyl CoA, microsomes from Sf9 cells); assay type: biochemical; settings: 1 μM compound; hDGAT-1 containing microsomes from Sf9 cells
T1 construct: host or cells: Sf9 insect cells (baculovirus); microsomal fraction
T1 sequence (O75907 1-488): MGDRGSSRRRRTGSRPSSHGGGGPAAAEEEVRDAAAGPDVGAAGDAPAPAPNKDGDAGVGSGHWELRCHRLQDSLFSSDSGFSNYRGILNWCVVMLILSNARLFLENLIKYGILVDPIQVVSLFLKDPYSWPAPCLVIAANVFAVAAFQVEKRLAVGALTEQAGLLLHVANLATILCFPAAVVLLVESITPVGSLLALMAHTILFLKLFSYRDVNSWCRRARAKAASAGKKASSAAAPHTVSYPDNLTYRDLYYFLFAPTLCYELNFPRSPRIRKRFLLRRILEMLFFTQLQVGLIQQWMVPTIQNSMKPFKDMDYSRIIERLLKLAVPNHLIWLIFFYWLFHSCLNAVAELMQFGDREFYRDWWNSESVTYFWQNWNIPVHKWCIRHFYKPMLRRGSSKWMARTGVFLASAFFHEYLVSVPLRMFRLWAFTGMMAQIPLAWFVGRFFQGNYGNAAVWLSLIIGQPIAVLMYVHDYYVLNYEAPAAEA
Procedure: In-Vitro Protocol for DGAT-1 Assay
Sf9 Culture and Treatment
Sf9 cells were grown in T25 flasks containing Graces's Insect media (Invitrogen, US) with 10% FBS (Hyclone, US) with antibiotic (100 units/mL penicillin, 100 μg/mL streptomycin sulphate, 0.25 μg/mL amphotericin B as Fungizone) grown in a 27° C. incubator.
hDGAT-10RF expression clone (RZPDo839C09146 in pDEST vector) was obtained from RZPD, Germany. hDGAT-1 bacmid DNA was obtained by transformation of the hDGAT expression clone into DH10Bac E. coli competent cells. Approximately 1 μg of hDGAT-1 bacmid DNA was infected into Sf9 cells with Cellfectin (Invitrogen, US) reagent. Following infection, Sf9 cells were incubated at 27° C. for 30 minutes. Five hours after infection, the media was replaced with growth media containing antibiotic (100 units/mL penicillin, 100 μg/mL streptomycin sulphate, 0.25 μg/mL amphotericin B as Fungizone) and incubated at 27° C. for 72 hours. The supernatant containing the virus was centrifuged at 1500 g for 5 minutes, passed through 0.22 μm filter, and subsequently stored at 4° C. The virus was further amplified three more times by re-infection of Sf9 cells and the viral titer was determined by plaque assay.
Preparation of DGAT-1 Microsomes from Sf9 Cells
Sf9 cells were seeded in spinner flasks on day 0 at a cell density of 1×10^6 and infected on day 1 with hDGAT-1 baculovirus at a multiplicity of infection (MOI) of 5 and a cell density of 2×10^6. On day 3 (or 66-72 hours), cells were harvested and centrifuged at 2500 g for 10 minutes. Pellet was resuspended in lysis buffer (100 mM sucrose, 50 mM KCl, 40 mM KH2PO4, 30 mM EDTA, pH 7.2) and passed through 21-gauge needle approximately 10 times. […] The supernatant was subjected to centrifugation at 35,000 rpm in a Beckman Ti-45 rotor at 4° C. for 1 hour. The resultant pellet containing the microsomes were resuspended overnight in 1 mL of lysis buffer and total protein concentration was estimated using Bradford Reagent (Sigma, US). Microsomes were aliquoted and stored at −80° C.
Measurement of DGAT-1 Activity
Frozen aliquots of hDGAT-1 containing microsomes were thawed (5-10 mg/mL total protein) on ice and diluted to a working stock of 1 mg/mL with DGAT Assay Buffer (DAB).
The assay was performed in duplicates in a reaction volume of 100 μL. […] Procedure:
The reaction was started by the addition of […] of 1 mg/mL of microsomes (iv) to the mixture and incubated at 37° C. for 10 minutes. […] The mixture was vortexed and the triglycerides formed were extracted into the organic heptane phase.

| Compound | % Reduction (Plasma triglyceride) (Swiss mice) | % inhibition of hDGAT-1 at 1 μM (hDGAT-1) | inhibition at 1 µM (hDGAT-1) [%] |
| --- | --- | --- | --- |
| CC(C)C(NC(=O)c1ncc(-c2ccc(NC(=O)Nc3cccc(C(F)(F)F)c3)cc2)s1)C(=O)O (stereo not shown) [Example 10, 3-methyl-2-(5-(4-(3-(3-(trifluoromethyl)phenyl)ureido)phenyl)thiazole-2-carboxamido)butanoic acid] | ++ (>50% Reduction ≦100) |  |  |
| 2-(5-(4-(3-(3,4-dimethylphenyl)ureido)phenyl)oxazole-2-carboxamido)-3-methylbutanoic acid [Example 14] | ++ (>50% Reduction ≦100) | ++ (>50% Inhibition ≦100) |  |
| CC(C)C(NC(=O)c1ncc(-c2ccc(NC(=O)Nc3ccc(Cl)cc3Oc3ccccc3)cc2)s1)C(=O)O (stereo not shown) [Example 18, 2-(5-(4-(3-(4-chloro-2-phenoxyphenyl)ureido)phenyl)thiazole-2-carboxamido)-3-methylbutanoic acid] | ++ (>50% Reduction ≦100) |  |  |
| CC(C)C(NC(=O)c1ncc(-c2ccc(NC(=O)Nc3ccccc3Cl)cc2)o1)C(=O)O (stereo not shown) [Example 4, 2-(5-(4-(3-(2-Chlorophenyl)ureido)phenyl)oxazole-2-carboxamido)-3-methylbutanoic acid] | + (>0% Reduction ≦50) |  | 50 to 100 |
| CC(C)C(NC(=O)c1ncc(-c2ccc(NC(=O)Nc3ccccc3Oc3ccccc3)cc2)s1)C(=O)O (stereo not shown) [Example 16, 3-methyl-2-(5-(4-(3-(2-phenoxyphenyl)ureido)phenyl)thiazole-2-carboxamido)butanoic acid] | ++ (>50% Reduction ≦100) |  |  |
| CC(C)C(NC(=O)c1ncc(-c2ccc(NC(=O)Nc3ccccc3Cl)cc2)s1)C(=O)O (stereo not shown) [Example 12, 2-(5-(4-(3-(2-Chlorophenyl)ureido)phenyl)thiazole-2-carboxamido)-3-methylbutanoic acid] | ++ (>50% Reduction ≦100) |  |  |
| CC(C)C(NC(=O)c1ncc(-c2ccc(NC(=O)c3ccc(C(C)(C)C)cc3)cc2)s1)C(=O)O (stereo not shown) [Example 22, 2-(5-(4-(4-tert-butylbenzamido)phenyl)thiazole-2-carboxamido)-3-methylbutanoic acid] | ++ (>50% Reduction ≦100) |  |  |
| CC(C)C(NC(=O)c1ncc(-c2ccc(Nc3nc4ccc(F)cc4s3)cc2)s1)C(=O)O (stereo not shown) [Example 20, 2-(5-(4-(6-fluorobenzo[d]thiazol-2-ylamino)phenyl)thiazole-2-carboxamido)-3-methylbutanoic acid] | ++ (>50% Reduction ≦100) |  |  |
